Legend:
Format in all cases: in vivo
Veronica persica = test: Post-emergence herbicidal action in greenhouse against VERPE; settings: visual rating after ca. 3 weeks
Excerpt: (§1) Biologische Beispiele: • Die folgenden Abkürzungen werden für die in den folgenden Tabellen aufgeführten Kultur- und Schadpflanzen verwendet: ABUTH: Abutilon theophrasti ALOMY: Alopecurus myosuroides AMARE: Amaranthus retroflexus BRSNS: Brassica napus DIGSA: Digitaria sanguinalis ECHCG: Echinochloa crus-galli GLXMA: Glycine max KCHSC: Kochia scoparia LOLRI: Lolium rigidum MATIN: Matricaria inodora ORYZA: Oryza sativa PHPBU: Pharbitis purpurea POLCO: Polygonum convolvulus SETVI: Setaria viridis VERPE: Veronica persica VIOTR: Viola tricolor TRZAS: Triticum aestivum ZEAMX: Zea mays • A. Herbizide Wirkung im Nachauflauf
(§2) Samen von mono- bzw. dikotylen Unkrautpflanzen wurden in Kunststoff- oder Holzfasertöpfen in sandigem Lehmboden ausgelegt, mit Erde abgedeckt und im Gewächshaus unter kontrollierten Wachstumsbedingungen angezogen. 2 bis 3 Wochen nach der Aussaat wurden die Versuchspflanzen im Einblattstadium behandelt. Die in Form von benetzbaren Pulvern (WP) oder als Emulsionskonzentrate (EC) formulierten erfindungsgemäßen Verbindungen wurden dann als wässrige Suspension bzw. Emulsion unter Zusatz von 0,5% Additiv mit einer Wasseraufwandmenge von umgerechnet 600 l/ha auf die grünen Pflanzenteile gesprüht. Nach ca. 3 Wochen Standzeit der Versuchspflanzen im Gewächshaus, unter optimalen Wachstumsbedingungen, wurde die Wirkung der Präparate visuell im Vergleich zu unbehandelten Kontrollen bonitiert. Beispielsweise bedeutet 100% Wirkung = Pflanzen sind abgestorben, 0% Wirkung = wie Kontrollpflanzen.
(§3) In den nachstehenden Tabellen A1 bis A11 sind die Wirkungen ausgewählter Verbindungen der allgemeinen Formel (I) gemäß der Tabelle 1 auf verschiedene Schadpflanzen und einer Aufwandmenge entsprechend 20 g/ha und niedriger, die gemäß zuvor genannter Versuchsvorschrift erhalten wurden, dargestellt. Tabelle A1a: Nachauflaufwirkung bei 1,25 g/ha gegen ABUTH in %

Digitaria sanguinalis = test: Post-emergence herbicidal action in greenhouse against DIGSA; settings: visual rating after ca. 3 weeks
Excerpt: as §1, §2, §3

Matricaria inodora = test: Post-emergence herbicidal action in greenhouse against MATIN; settings: visual rating after ca. 3 weeks
Excerpt: as §1, §2, §3

Setaria viridis = test: Post-emergence herbicidal action in greenhouse against SETVI; settings: visual rating after ca. 3 weeks
Excerpt: as §1, §2, §3

Alopecurus myosuroides = test: Post-emergence herbicidal action in greenhouse against ALOMY; settings: 20 g/ha; post-emergence spray, 600 l/ha water; visual rating after ca. 3 weeks vs untreated controls; 100% = plants dead, 0% = like control plants
Excerpt: as §1, §2, §3

Oryza sativa = test: Post-emergence action on crop plants in greenhouse, ORYZA; settings: crop plant, visual rating after ca. 3 weeks, 100% = plants dead, 0% = like control plants
Excerpt: as §1
as §2, with “Kulturpflanzen” for “Unkrautpflanzen”
(§4) In den nachstehenden Tabellen B1 bis B4 sind die Wirkungen ausgewählter Verbindungen der allgemeinen Formel (I) gemäß der Tabelle 1 auf verschiedene Kulturpflanzen und einer Aufwandmenge entsprechend 20 g/ha und niedriger, die gemäß zuvor genannter Versuchsvorschrift erhalten wurden, dargestellt. Tabelle B1a: Nachauflaufwirkung bei 1,25 g/ha gegen ZEAMX in %

Pharbitis purpurea = test: Post-emergence herbicidal action in greenhouse against PHBPU; settings: visual rating after ca. 3 weeks
Excerpt: as §1, §2, §3

Viola tricolor = test: Post-emergence herbicidal action in greenhouse against VIOTR; settings: visual rating after ca. 3 weeks
Excerpt: as §1, §2, §3

Amaranthus retroflexus = test: Post-emergence herbicidal action in greenhouse against AMARE; settings: post-emergence spray, 600 l/ha water, visual rating after ca. 3 weeks vs untreated controls, 100% = plants dead, 0% = like control plants
Excerpt: as §1, §2, §3

Abutilon theophrasti = test: Post-emergence herbicidal action in greenhouse against ABUTH; settings: post-emergence spray, 600 l/ha water, visual rating after ca. 3 weeks vs untreated controls, 100% = plants dead, 0% = like control plants
Excerpt: as §1, §2, §3

Triticum aestivum = test: Post-emergence action on crop plants in greenhouse, TRZAS; settings: crop plant, visual rating after ca. 3 weeks, 100% = plants dead, 0% = like control plants
Excerpt: as §1
as §2, with “Kulturpflanzen” for “Unkrautpflanzen”
as §4

Polygonum convolvulus = test: Post-emergence herbicidal action in greenhouse against POLCO; settings: visual rating after ca. 3 weeks
Excerpt: as §1, §2, §3

Zea mays = test: Post-emergence action on crop plants in greenhouse, ZEAMX; settings: crop plant, 100% = plants dead, 0% = like control plants
Excerpt: as §1
as §2, with “Kulturpflanzen” for “Unkrautpflanzen”
as §4

[1] = 1,25 g/ha, post-emergence, visual rating after ca. 3 weeks

Compound	Nachauflaufwirkung gegen VERPE (Veronica persica; 5 g/ha) [%]	Nachauflaufwirkung gegen VERPE (Veronica persica; 20 g/ha) [%]	Nachauflaufwirkung gegen DIGSA (Digitaria sanguinalis; 20 g/ha) [%]	Nachauflaufwirkung gegen MATIN (Matricaria inodora; 20 g/ha) [%]	Nachauflaufwirkung gegen SETVI (Setaria viridis; 20 g/ha) [%]	Nachauflaufwirkung gegen ORYZA (Oryza sativa; 1,25 g/ha) [%]	Nachauflaufwirkung gegen PHBPU (Pharbitis purpurea; 1,25 g/ha) [%]	Nachauflaufwirkung gegen PHBPU (Pharbitis purpurea; 5 g/ha) [%]	Nachauflaufwirkung gegen PHBPU (Pharbitis purpurea; 20 g/ha) [%]	Nachauflaufwirkung gegen VIOTR (Viola tricolor; 1,25 g/ha) [%]	Nachauflaufwirkung gegen VIOTR (Viola tricolor; 5 g/ha) [%]	Nachauflaufwirkung gegen VIOTR (Viola tricolor; 20 g/ha) [%]	Nachauflaufwirkung gegen AMARE (Amaranthus retroflexus; 1,25 g/ha) [%]	Nachauflaufwirkung gegen AMARE (Amaranthus retroflexus; 5 g/ha) [%]	Nachauflaufwirkung gegen AMARE (Amaranthus retroflexus; 20 g/ha) [%]	Nachauflaufwirkung gegen ABUTH (Abutilon theophrasti; 1,25 g/ha) [%]	Nachauflaufwirkung gegen ABUTH (Abutilon theophrasti; 5 g/ha) [%]	Nachauflaufwirkung gegen ABUTH (Abutilon theophrasti; 20 g/ha) [%]	Nachauflaufwirkung gegen TRZAS (Triticum aestivum; 1,25 g/ha) [%]	Nachauflaufwirkung gegen TRZAS (Triticum aestivum; 5 g/ha) [%]	also measured
COCCOC(=O)C(C)(C)OC(=O)c1cc(-n2c(=O)cc(C(F)(F)F)n(N)c2=O)ccc1Cl [I.2-1]	100	100	100	100	100	0	80	90	100	90	100	100	100	100	100	90	100	100	0	0	Nachauflaufwirkung gegen VERPE (Veronica persica; 1,25 g/ha): 80%; Nachauflaufwirkung gegen MATIN (Matricaria inodora; 5 g/ha): 90%; Nachauflaufwirkung gegen SETVI (Setaria viridis; 1,25 g/ha): 100%; Nachauflaufwirkung gegen SETVI (Setaria viridis; 5 g/ha): 100%; Nachauflaufwirkung gegen ALOMY (Alopecurus myosuroides): 80%; Nachauflaufwirkung gegen ORYZA (Oryza sativa; 5 g/ha): 0%; Nachauflaufwirkung gegen TRZAS (Triticum aestivum; 20 g/ha): 10%; Nachauflaufwirkung gegen POLCO (Polygonum convolvulus; 20 g/ha): 100%
CC(C)(OC(=O)c1cc(-n2c(=O)cc(C(F)(F)F)n(N)c2=O)ccc1Cl)C(=O)OCC#N [I.2-176, 1-(Cyanmethoxy)-2-methyl-1-oxopropan-2-yl-5-[3-amino-2,6-dioxo-4-(trifluormethyl)-3,6-dihydropyrimidin-1(2H)-yl]-2-chlorbenzoat]	90	100	100	80	100	0	90	100	100	80	100	100	100	100	100	80	100	100	0	0	Nachauflaufwirkung gegen ZEAMX (Zea mays; [1]): 20%; Nachauflaufwirkung gegen ORYZA (Oryza sativa; 5 g/ha): 20%; Nachauflaufwirkung gegen POLCO (Polygonum convolvulus; 20 g/ha): 100%
CC(C)(OC(=O)c1cc(-n2c(=O)cc(C(F)(F)F)n(N)c2=O)ccc1Cl)C(=O)OCc1ccccn1 [I.2-286]	100	100	100	100	100	0	100	100	100	100	100	100	80	100	100	80	100	100	0	0	Nachauflaufwirkung gegen DIGSA (Digitaria sanguinalis; 5 g/ha): 80%; Nachauflaufwirkung gegen SETVI (Setaria viridis; 1,25 g/ha): 90%; Nachauflaufwirkung gegen SETVI (Setaria viridis; 5 g/ha): 100%; Nachauflaufwirkung gegen ZEAMX (Zea mays; [1]): 20%; Nachauflaufwirkung gegen ORYZA (Oryza sativa; 5 g/ha): 0%; Nachauflaufwirkung gegen TRZAS (Triticum aestivum; 20 g/ha): 10%; Nachauflaufwirkung gegen POLCO (Polygonum convolvulus; 5 g/ha): 100%; Nachauflaufwirkung gegen POLCO (Polygonum convolvulus; 20 g/ha): 100%
C=CCOC(=O)C(C)(C)OC(=O)c1cc(-n2c(=O)cc(C(F)(F)F)n(N)c2=O)ccc1Cl [I.2-471]	100	100	100	100	100	0	100	100	100	100	100	100	100	100	100	90	100	100	0	0	Nachauflaufwirkung gegen VERPE (Veronica persica; 1,25 g/ha): 100%; Nachauflaufwirkung gegen DIGSA (Digitaria sanguinalis; 5 g/ha): 100%; Nachauflaufwirkung gegen MATIN (Matricaria inodora; 5 g/ha): 90%; Nachauflaufwirkung gegen SETVI (Setaria viridis; 1,25 g/ha): 100%; Nachauflaufwirkung gegen SETVI (Setaria viridis; 5 g/ha): 100%; Nachauflaufwirkung gegen ALOMY (Alopecurus myosuroides): 80%; Nachauflaufwirkung gegen ZEAMX (Zea mays; [1]): 20%; Nachauflaufwirkung gegen ZEAMX (Zea mays; 5 g/ha, post-emergence spray, 600 l/ha water, visual rating after ca. 3 weeks vs untreated controls): 20%; Nachauflaufwirkung gegen TRZAS (Triticum aestivum; 20 g/ha): 10%; Nachauflaufwirkung gegen POLCO (Polygonum convolvulus; 20 g/ha): 100%

From patent EP4230620A1, “SUBSTITUTED N-AMINO-N-BENZOIC ACID URACILS, THEIR SALTS AND USE OF SAID COMPOUNDS AS HERBICIDAL AGENTS” (Bayer Aktiengesellschaft, priority 2022, dated 2023)
